Measured values from US11884660B2, “Substituted oxopyridine derivative” (Bayer Pharma Aktiengesellschaft, priority 2018, dated 2024).
pIC50: −log10 of the molar value. Structures can show the parent of a compound that is named as a salt.

Tests used:
[1] = target: human plasma kallikrein (Homo sapiens (Human), UniProt P03952); test: Determination of the plasma kallikrein activity (fluorogenic substrate H-Pro-Phe-Arg-AMC); assay type: biochemical; settings: human plasma kallikrein 0.6 nM; 15 min preincubation; 30 min at 22° C.; some as mean values from multiple determinations
Chain of human plasma kallikrein (P03952 391-638): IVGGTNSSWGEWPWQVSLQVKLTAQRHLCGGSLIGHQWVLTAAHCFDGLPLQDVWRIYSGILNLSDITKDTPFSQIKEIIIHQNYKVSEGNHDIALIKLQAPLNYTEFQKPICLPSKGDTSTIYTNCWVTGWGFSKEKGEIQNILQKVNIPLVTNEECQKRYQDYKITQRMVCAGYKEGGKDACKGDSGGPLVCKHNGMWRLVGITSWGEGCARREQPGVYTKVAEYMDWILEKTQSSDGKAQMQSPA
Chain of human plasma kallikrein (P03952 20-390 partner): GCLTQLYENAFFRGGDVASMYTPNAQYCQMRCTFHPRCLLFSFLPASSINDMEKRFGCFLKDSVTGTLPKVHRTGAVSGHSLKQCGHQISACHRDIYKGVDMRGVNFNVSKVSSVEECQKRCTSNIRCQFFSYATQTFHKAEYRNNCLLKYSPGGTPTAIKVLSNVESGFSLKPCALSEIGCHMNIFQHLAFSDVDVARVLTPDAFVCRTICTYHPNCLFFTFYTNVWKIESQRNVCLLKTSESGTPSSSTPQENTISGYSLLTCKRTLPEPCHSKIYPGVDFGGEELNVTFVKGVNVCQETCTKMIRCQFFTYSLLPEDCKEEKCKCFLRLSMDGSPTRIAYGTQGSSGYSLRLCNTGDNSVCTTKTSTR
Protocol: a.1) Determination of the Plasma Kallikrein Activity
(§1) To determine the plasma kallikrein inhibition of the substances according to the invention, a biochemical test system is used which utilizes the reaction of a peptidic plasma kallikrein substrate to determine the enzymatic activity of human plasma kallikrein. Here, plasma kallikrein cleaves from the peptic plasma kallikrein substrate the C-terminal aminomethylcoumarin (AMC), the fluorescence of which is measured. The determinations are carried out in microtitre plates.
Test substances are dissolved in dimethyl sulphoxide and serially diluted in dimethyl sulphoxide (3000 μM to 0.0078 μM; resulting final concentrations in the test: 50 μM to 0.00013 μM). In each case 1 μl of the diluted substance solutions is placed into the wells of white microtitre plates from Greiner (384 wells). 20 μl of assay buffer (50 mM Tris/HCl pH 7.4; 100 mM sodium chloride solution; 5 mM of calcium chloride solution; 0.1% of bovine serum albumin) and 20 μl of plasma kallikrein from Kordia (0.6 nM in assay buffer) are then added successively. After 15 min of incubation, the enzyme reaction is started by addition of 20 μl of the substrate H-Pro-Phe-Arg-AMC dissolved in assay buffer (10 μM in assay buffer) from Bachem, the mixture is incubated at room temperature (22° C.) for 30 min and fluorescence is then measured (excitation: 360 nm, emission: 460 nm). The measured emissions of the test batches with test substance are compared to those of control batches without test substance (only dimethyl sulphoxide instead of test substance in dimethyl sulphoxide), and IC50 values are calculated from the concentration/activity relationships. Activity data from this test are listed in Table A below (some as mean values from multiple independent individual determinations): […]

[2] = target: human factor XIa (Homo sapiens (Human), UniProt P03951); test: Measurement of FXIa inhibition (fluorogenic substrate Boc-Glu(OBzl)-Ala-Arg-AMC); assay type: biochemical; settings: human factor XIa 0.45 nM; 15 min preincubation; 30 min at 22° C.; some as mean values from multiple determinations
Chain of human factor XIa (P03951 388-625): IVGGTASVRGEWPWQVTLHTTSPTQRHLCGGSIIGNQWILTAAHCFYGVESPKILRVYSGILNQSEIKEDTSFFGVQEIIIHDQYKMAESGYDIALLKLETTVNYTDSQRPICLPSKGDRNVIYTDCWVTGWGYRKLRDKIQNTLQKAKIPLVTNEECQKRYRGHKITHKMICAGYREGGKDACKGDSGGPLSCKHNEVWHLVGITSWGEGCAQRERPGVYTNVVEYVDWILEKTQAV
Chain of human factor XIa (P03951 19-387 partner): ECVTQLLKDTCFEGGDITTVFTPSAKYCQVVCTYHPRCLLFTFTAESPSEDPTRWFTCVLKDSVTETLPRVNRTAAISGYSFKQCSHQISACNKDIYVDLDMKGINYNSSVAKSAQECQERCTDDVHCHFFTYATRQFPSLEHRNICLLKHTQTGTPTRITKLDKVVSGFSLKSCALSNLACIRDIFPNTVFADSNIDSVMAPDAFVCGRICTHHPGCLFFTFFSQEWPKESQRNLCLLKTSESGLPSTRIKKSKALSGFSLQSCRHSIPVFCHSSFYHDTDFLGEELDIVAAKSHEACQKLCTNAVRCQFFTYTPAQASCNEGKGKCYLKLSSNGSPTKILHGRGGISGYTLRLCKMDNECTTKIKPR
Protocol: a.2) Measurement of FXIa Inhibition
as §1, with “The factor XIa” for “To determine the plasma kallikrein”, “invention is determined using” for “invention,”, “system” for “system is used”, “factor XIa” for “plasma kallikrein”, “factor XIa.” for “plasma kallikrein.”
Test substances are dissolved in dimethyl sulphoxide and serially diluted in dimethyl sulphoxide (3000 μM to 0.0078 μM; resulting final concentrations in the test: 50 μM to 0.00013 μM). In each case 1 μl of the diluted substance solutions is placed into the wells of white microtitre plates from Greiner (384 wells). 20 μl of assay buffer (50 mM of Tris/HCl pH 7.4; 100 mM of sodium chloride; 5 mM of calcium chloride; 0.1% of bovine serum albumin) and 20 μl of factor XIa from Kordia (0.45 nM in assay buffer) are then added successively. After 15 min of incubation, the enzyme reaction is started by addition of 20 μl of the factor XIa substrate Boc-Glu(OBzl)-Ala-Arg-AMC dissolved in assay buffer (10 μM in assay buffer) from Bachem, the mixture is incubated at room temperature (22° C.) for 30 min and fluorescence is then measured (excitation: 360 nm, emission: 460 nm). The measured emissions of the test batches with test substance are compared to those of control batches without test substance (only dimethyl sulphoxide instead of test substance in dimethyl sulphoxide), and IC50 values are calculated from the concentration/activity relationships. Activity data from this test are listed in Table B below (some as mean values from multiple independent individual determinations): […]

| pIC50 [1] | pIC50 [2] | SMILES |
| --- | --- | --- |
| 8.25 | < 5.00 | COc1cn(C(C(=O)Nc2ccn3ncc(C(N)=O)c3c2)C(C)CCCN)c(=O)cc1-c1cc(Cl)ccc1C#N (racemic) [Example 1, 5-({6-Amino-2-[4-(5-chloro-2-cyanophenyl)-5-methoxy-2-oxopyridin-1(2H)-yl]-3-methyl-hexanoyl}amino)pyrazolo[1,5-a]pyridine-3-carboxamidetrifluoroacetate] |
| 8.74 | < 5.70 | COc1cn([C@H](C(=O)Nc2ccn3ncc(C(N)=O)c3c2)C(C)CCCN)c(=O)cc1-c1cc(Cl)ccc1C#N (single isomer, unassigned) [Example 2, trifluoroacetate] |
| 8.68 | < 5.70 | COc1cn([C@H](C(=O)Nc2ccn3ncc(C(N)=O)c3c2)C(C)CCCN)c(=O)cc1-c1cc(Cl)ccc1C#N (single isomer, unassigned) [Example 3, trifluoroacetate] |
